{
  "source": "paper PMC8162438",
  "about": "“Cancer cell-selective modulation of mitochondrial respiration and metabolism by potent organogold(III) dithiocarbamates” (Chemical Science, 2020)",
  "system": "MDA-MB-231",
  "assay": "Mitochondrial membrane potential (JC-1)",
  "assay_type": "cell-based",
  "details": "MDA-MB-231, 10 μM, 6 h, versus DMSO",
  "description": "Activated DEG included NDUFS7, [complex I], COX7A1 gene [complex IV], and ATP5O, ATP5I genes [complex V] whereas the inhibited DEG were MT-ND4L [complex I], SDHD gene [complex II], and ATP5C, ATP5F [complex V]. […] These findings prompted functional biology experiments to further corroborate the effect of 2a or its mechanism of action in TNBC. We examined the effect of 2a on mitochondrial membrane potential, assayed by JC-1 dye.[85] […] We used carbonyl cyanide m-chlorophenyl hydrazine (CCCP), an uncoupler, as a positive control to validate the experiment. The MMP is a key driving force in ATP synthesis and overall a key factor in maintaining redox homeostasis throughout the cell.[86] […]\ntext (Figure 5C). Samples 37 °C, NaN 3, methyl-β-cyclodextrin, and chlorpromazine hydrochloride were calculated using calibration curve Fig. S134 and samples wortmannin, genistein, and +4 °C were calculated using calibration curve Fig. S135. […]\nPrior to analysis samples were required to pass three tests before library construction: 1) nanodrop for RNA purity (OD 260/OD280), 2) agarose gel electrophoresis for RNA integrity and potential contamination, and 3) Agilent 2100 check RNA integrity. […] After library construction, qPCR was used to accurately quantify the library effective concentration (> 2 nM), in order to ensure the library quality. […]",
  "data": [
    {"compound": "C[N+](C)=C1[S][Au-2]2([S]1)[c]1ccccc1Cc1cccc[n+]12.F[P-](F)(F)(F)(F)F", "note": "(stereo not shown) [2a]", "values": [
      {"measurement": "Mitochondrial membrane potential (JC-1)", "result": "strong depolarization of the MMP"}
    ]}
  ]
}
